According to the CheMixHub viscosity set:

Test: xn = mol fraction of the nth substance listed

C1CCCC1 + CC(C)CCO
viscosity [mPa·s], 101 kPa
Conditions | 298.15 K | 308.15 K
x1 = 0.0443 | 3.482 | 2.238
x1 = 0.0808 | 3.173 | 2.06
x1 = 0.1182 | 2.966 | 1.962
x1 = 0.2087 | 2.37 | 1.573
x1 = 0.3063 | 1.857 | 1.278
x1 = 0.3959 | 1.511 | 1.09
x1 = 0.521 | 1.086 | 0.7741
x1 = 0.616 | 0.8169 | 0.6771
x1 = 0.7042 | 0.6669 | 0.5329
x1 = 0.8044 | 0.5675 | 0.4453
x1 = 0.8984 | 0.4649 | 0.3966
x1 = 0.9358 | 0.4361 | 0.3784
x2 = 0.0075 | 0.4035 | 0.353

C1CCCC1 + CC(C)CO
viscosity [mPa·s], 101 kPa
Conditions | 298.15 K | 308.15 K
x1 = 0.0603 | 2.848 | 1.934
x1 = 0.1025 | 2.58 | 1.68
x1 = 0.1812 | 2.236 | 1.478
x1 = 0.2538 | 1.84 | 1.237
x1 = 0.3617 | 1.355 | 0.9824
x1 = 0.4947 | 0.9586 | 0.7014
x1 = 0.5816 | 0.8054 | 0.6185
x1 = 0.6617 | 0.6549 | 0.5283
x1 = 0.7863 | 0.5622 | 0.4429
x1 = 0.8809 | 0.4552 | 0.3863
x1 = 0.9205 | 0.4381 | 0.3695
x1 = 0.9474 | 0.4233 | 0.3609

C1CCCC1 + CC(C)O
101 kPa
Conditions | viscosity [mPa·s]
298.15 K, x1 = 0.0779 | 1.686
298.15 K, x1 = 0.1506 | 1.405
298.15 K, x1 = 0.1861 | 1.302
298.15 K, x1 = 0.2303 | 1.179
298.15 K, x1 = 0.26 | 1.129
298.15 K, x1 = 0.3112 | 1.009
298.15 K, x1 = 0.3879 | 0.8567
298.15 K, x1 = 0.4568 | 0.7573
298.15 K, x1 = 0.5489 | 0.6423
298.15 K, x1 = 0.6378 | 0.5548
298.15 K, x1 = 0.7196 | 0.5314
298.15 K, x1 = 0.8237 | 0.455
298.15 K, x1 = 0.9124 | 0.4265
308.15 K, x1 = 0.0365 | 1.373
308.15 K, x1 = 0.081 | 1.28
308.15 K, x1 = 0.1332 | 1.125
308.15 K, x1 = 0.1521 | 1.101
308.15 K, x1 = 0.1757 | 1.034
308.15 K, x1 = 0.1856 | 1.015
308.15 K, x1 = 0.2382 | 0.9575
308.15 K, x1 = 0.2694 | 0.9099
308.15 K, x1 = 0.3483 | 0.7902
308.15 K, x1 = 0.3863 | 0.7261
308.15 K, x1 = 0.4288 | 0.6806
308.15 K, x1 = 0.478 | 0.6312
308.15 K, x1 = 0.5296 | 0.5689
308.15 K, x1 = 0.5891 | 0.5186
308.15 K, x1 = 0.6269 | 0.4877
308.15 K, x1 = 0.6889 | 0.4468
308.15 K, x1 = 0.7 | 0.4437
308.15 K, x1 = 0.7248 | 0.4309
308.15 K, x1 = 0.7619 | 0.4179
308.15 K, x1 = 0.98 | 0.3745
308.15 K, x2 = 0.0108 | 0.3641

CN1CCCC1=O + CC(C)O
298.15 K, 101 kPa
Conditions | viscosity [mPa·s]
x1 = 0.0609 | 1.8
x1 = 0.1034 | 1.703
x1 = 0.1399 | 1.641
x1 = 0.1993 | 1.57
x1 = 0.2332 | 1.539
x1 = 0.3074 | 1.5
x1 = 0.3626 | 1.454
x1 = 0.4127 | 1.45
x1 = 0.4612 | 1.481
x1 = 0.5022 | 1.488
x1 = 0.5599 | 1.497
x1 = 0.6107 | 1.511
x1 = 0.6683 | 1.53
x1 = 0.7081 | 1.543
x1 = 0.7567 | 1.561
x1 = 0.794 | 1.579
x1 = 0.8562 | 1.608
x1 = 0.9199 | 1.633

NCCO + CC(C)O
viscosity [mPa·s], 100 kPa
Conditions | x1 = 0.1 | x1 = 0.2 | x1 = 0.3 | x1 = 0.4 | x1 = 0.5 | x1 = 0.6 | x1 = 0.7 | x1 = 0.8 | x1 = 0.9
303.15 K | 2.11 | 2.53 | 3.08 | 3.86 | 4.9 | 6.12 | 7.7 | 9.55 | 11.9
313.15 K | 1.63 | 1.92 | 2.31 | 2.88 | 3.55 | 4.35 | 5.37 | 6.54 | 7.97
323.15 K | 1.27 | 1.49 | 1.78 | 2.21 | 2.65 | 3.22 | 3.89 | 4.69 | 5.64

OCc1ccccc1 + CC(C)O
viscosity [mPa·s], 101 kPa
Conditions | x1 = 0.076 | x1 = 0.1562 | x1 = 0.2409 | x1 = 0.3305 | x1 = 0.4254 | x1 = 0.5262 | x1 = 0.6334 | x1 = 0.7476 | x1 = 0.8695
298.15 K | 2.033 | 2.167 | 2.366 | 2.607 | 2.88 | 3.203 | 3.57 | 3.975 | 4.423
303.15 K | 1.776 | 1.896 | 2.06 | 2.258 | 2.486 | 2.756 | 3.06 | 3.4 | 3.785
308.15 K | 1.532 | 1.649 | 1.796 | 1.975 | 2.172 | 2.406 | 2.675 | 2.975 | 3.304
313.15 K | 1.338 | 1.432 | 1.556 | 1.701 | 1.87 | 2.07 | 2.303 | 2.557 | 2.828

C1CCCC1 + CCC(C)(C)O
viscosity [mPa·s], 101 kPa
Conditions | 298.15 K | 308.15 K
x1 = 0.0429 | 2.979 | 1.779
x1 = 0.067 | 2.668 | 1.62
x1 = 0.1245 | 2.256 | 1.413
x1 = 0.2079 | 1.793 | 1.151
x1 = 0.3116 | 1.297 | 0.9115
x1 = 0.3957 | 1.073 | 0.7831
x1 = 0.5173 | 0.8412 | 0.6798
x1 = 0.5982 | 0.7558 | 0.5719
x1 = 0.683 | 0.6454 | 0.5099
x1 = 0.8095 | 0.508 | 0.4267
x1 = 0.8844 | 0.4827 | 0.4072
x1 = 0.9127 | 0.4379 | 0.3726
x1 = 0.944 | 0.4169 | 0.3547

C1CCCC1 + CCC(C)=O
viscosity [mPa·s], 101.33 kPa
Conditions | 293.15 K | 298.15 K | 303.15 K
x1 = 0.0472 | 0.397 | 0.377 | 0.358
x1 = 0.0981 | 0.395 | 0.375 | 0.358
x1 = 0.1929 | 0.394 | 0.372 | 0.354
x1 = 0.2932 | 0.39 | 0.37 | 0.353
x1 = 0.3753 | 0.39 | 0.37 | 0.352
x1 = 0.4966 | 0.393 | 0.373 | 0.354
x1 = 0.6189 | 0.394 | 0.374 | 0.355
x1 = 0.6838 | 0.398 | 0.377 | 0.359
x1 = 0.8034 | 0.407 | 0.387 | 0.367
x1 = 0.9061 | 0.419 | 0.397 | 0.377
x1 = 0.9499 | 0.426 | 0.405 | 0.383
